This note sets out measurements from EPA's ToxRefDB 2.

The subject of data set [1] is rat. The following applies: Subchronic oral toxicity in rodents, wistar, Feed, dose end: 98 day, group: systemic.
The subject of data set [2] is mouse. The conditions noted are these: Carcinogenicity; b6c3f1; Oral; Feed; dose end: 101 week; group: systemic; systemic / in life observation / body weight / body weight + systemic / pathology microscopic / liver / hyperplasia + systemic / pathology ….
Data set [3] relates to mouse. The conditions noted are these: Subchronic oral toxicity in rodents, b6c3f1, Feed, dose end: 7 week, group: systemic, systemic / in life observation / body weight / body weight.
Data set [4] deals with rat. The conditions noted are these: Combined chronic toxicity/carcinogenicity, fischer, Oral, Feed, dose end: 103 week, group: systemic.
Data set [5] has as its system rat. The conditions noted are these: Subchronic oral toxicity in rodents, fischer, Feed, dose end: 7 week, group: systemic.
Data set [6] deals with rat. The following applies: Carcinogenicity; fischer; Oral; Feed; dose end: 78 week; group: systemic; systemic / in life observation / body weight / body weight.
Data set [7] relates to mouse. The conditions noted are these: Carcinogenicity; b6c3f1; Oral; Feed; dose end: 78 week; group: systemic; systemic / in life observation / body weight / body weight.
In data set [8] the test system is mouse. The conditions noted are these: Prenatal developmental toxicity study; cd1; Oral; Gavage/Intubation; dose end: 14 GD; group: maternal; systemic / in life observation / body weight / body weight gain + systemic / in life observation / mortality / mortality.
Data set [9] has as its system mouse. The conditions noted are these: Carcinogenicity, b6c3f1, Oral, Feed, dose end: 24 month, group: systemic.
For data set [10], the system named is rat. The conditions noted are these: Carcinogenicity; wistar; Oral; [Not Specified]; dose end: 24 month; group: systemic; systemic / in life observation / mortality / mortality.
Data set [11] concerns rat. The following applies: Chronic toxicity, wistar, Oral, Feed, dose end: 108 week, group: systemic.
For data set [12], the system named is dog. The following applies: Subchronic oral toxicity in nonrodent, beagle, Feed, dose end: 90 day, group: systemic, systemic / pathology microscopic / kidney / vacuolization.
For data set [13], the system named is dog. The conditions noted are these: Chronic toxicity; beagle; Oral; [Not Specified]; dose end: 12 month; group: systemic; systemic / in life observation / body weight / body weight + systemic / in life observation / body weight / body weight gain + systemic / ….
The subject of data set [14] is rat. The conditions noted are these: Prenatal developmental toxicity study; sprague dawley; Oral; Gavage/Intubation; dose end: 17 GD; group: maternal; systemic / in life observation / body weight / body weight gain.
Data set [15] relates to rat. The following applies: Carcinogenicity; fischer; Oral; Gavage/Intubation; dose end: 103 week; group: systemic; systemic / pathology microscopic / stomach / hyperkeratosis + systemic / pathology microscopic / stomach / hyperplasia + systemic / ….
Data set [16] has as its system mouse. The conditions noted are these: Subchronic oral toxicity in rodents, b6c3f1, Gavage/Intubation, dose end: 13 week, group: systemic, systemic / in life observation / mortality / mortality.
The subject of data set [17] is mouse. The following applies: Carcinogenicity; b6c3f1; Oral; Gavage/Intubation; dose end: 103 week; group: systemic; systemic / pathology microscopic / stomach / hyperkeratosis + systemic / pathology microscopic / stomach / hyperplasia + systemic / ….
The test system of another data set is rabbit. The conditions noted are these: Prenatal developmental toxicity study, himalayan, Oral, Gavage/Intubation, dose end: 28 GD.
Data set [18] deals with rat. The following applies: Subchronic oral toxicity in rodents, wistar, Feed, dose end: 14 week, group: systemic.
Data set [19] has as its system rat. The conditions noted are these: Multigenerational reproductive toxicity study, wistar, Oral, Feed, dose end: 2 generation.
In data set [20] the test system is dog. The following applies: Chronic toxicity; beagle; Oral; Feed; dose end: 52 week; group: systemic; systemic / clinical chemistry / aminopyrine-n-demethylase / aminopyrine-n-demethylase + systemic / in life observation / body weight / body ….
The test system of data set [21] is mouse. The following applies: Carcinogenicity; b6c3f1; Oral; Feed; dose end: 104 week; group: systemic; systemic / in life observation / body weight / body weight + systemic / in life observation / body weight / body weight gain + systemic / in….
For data set [22], the system named is rat. The conditions noted are these: Chronic toxicity; sprague dawley; Oral; Feed; dose end: 104 week; group: systemic; systemic / pathology microscopic / mammary gland / mixed tumor nos + systemic / in life observation / body weight / body weight gain + ….
The mark [23] stands for this setting: systemic / in life observation / body weight / body weight gain + systemic / in life observation / clinical signs / wetness + systemic / ….
The mark [24] stands for this setting: systemic / in life observation / body weight / body weight.
The mark [25] stands for this setting: systemic / in life observation / body weight / body weight + systemic / pathology microscopic / lung / mixed tumor nos + systemic / ….
The mark [26] stands for this setting: systemic / in life observation / body weight / body weight + systemic / in life observation / body weight / body weight gain + systemic / ….
Setting [27] is: systemic / in life observation / body weight / body weight + systemic / clinical chemistry / calcium / calcium + systemic / clinical ….
Where [28] appears, read: group: developmental, developmental / developmental malformation / bone / incomplete ossification + systemic / in life observation / body weight / fetal weight.
The mark [29] stands for this setting: group: developmental, developmental / developmental malformation / bone / incomplete ossification + systemic / in life observation / body weight / fetal weight + ….
The mark [30] stands for this setting: group: maternal, systemic / in life observation / clinical signs / alopecia + systemic / in life observation / clinical signs / cold ears + systemic / in ….
Setting [31] is: systemic / organ weight / spleen / absolute + systemic / organ weight / spleen / relative to body weight + systemic / clinical chemistry / ….
The mark [32] stands for this setting: group: offspring, systemic / in life observation / body weight / offspring (pup) weight + systemic / pathology gross / liver / irregular surface + systemic / ….

With `Oc1cc(Cl)c(Cl)cc1Cl` [2,4,5-Trichlorophenol], in the data set on rat [1] (setting [23]), the lowest-observed-adverse-effect level (LOAEL) (as a rule, the lowest dose or exposure tested at which an adverse effect was seen) was > 1000 mg/kg/day; the NEL is 100 mg/kg/day; the no observed adverse effect level (NOAEL) (usually the highest tested level that showed no adverse finding) was ≥ 1000 mg/kg/day. Moreover, in the data set on rat [1] (systemic / in life observation / clinical signs / wetness + systemic / pathology microscopic / kidney / degeneration + systemic / pathology …), the LEL turned out to be 300 mg/kg/day.

For the compound `Cc1ccc(N)cc1N` [2,4-Diaminotoluene], the LEL in the data set on mouse [2] came to 15 mg/kg/day; in the data set on mouse [3], 30 mg/kg/day; with rat [4] (setting [25]), 3.95 mg/kg/day; with rat [5] (setting [24]), 12.5 mg/kg/day. The lowest-observed-adverse-effect level (LOAEL) was 15 mg/kg/day in the data set on mouse [2], 45 mg/kg/day in the data set with mouse [3], 3.95 mg/kg/day in the data set with rat [4] (setting [24]) and 25 mg/kg/day in the data set on rat [5] (setting [24]). In addition, the NEL is < 15 mg/kg/day in the data set on mouse [2], 15 mg/kg/day with mouse [3], < 3.95 mg/kg/day with rat [4] (setting [25]) and < 12.5 mg/kg/day with rat [5] (setting [24]). Moreover, the NOAEL is < 15 mg/kg/day with mouse [2], 30 mg/kg/day with mouse [3], < 3.95 mg/kg/day with rat [4] (setting [24]) and 12.5 mg/kg/day in the data set with rat [5] (systemic / in life observation / body weight / body weight + systemic / in life observation / mortality / mortality + systemic / pathology …).

As for `Cc1ccc([N+](=O)[O-])cc1N` [2-Methyl-5-nitroaniline], in the data set on rat [6], the LEL is 2.5 mg/kg/day, the lowest observed adverse effect level (LOAEL) was determined as 2.5 mg/kg/day, the NEL was < 2.5 mg/kg/day and the NOAEL was < 2.5 mg/kg/day. For the same compound, in the data set on mouse [7], the LEL stood at 180 mg/kg/day, the lowest-observed-adverse-effect level (LOAEL) came out at 180 mg/kg/day, the NEL is < 180 mg/kg/day and the no observed adverse effect level (NOAEL) was < 180 mg/kg/day.

On to `O=[N+]([O-])c1ccc(O)cc1` [4-Nitrophenol], for which, in the data set on mouse [8], the LEL stood at 400 mg/kg/day, the lowest observed adverse effect level (LOAEL) was > 400 mg/kg/day, the NEL is < 400 mg/kg/day and the no-observed-adverse-effect level (NOAEL) was ≥ 400 mg/kg/day.

`Nc1cnn(-c2ccccc2)c(=O)c1Cl` [Chloridazon]: the lowest observed adverse effect level (LOAEL) with mouse [9] (systemic / in life observation / body weight / body weight + systemic / in life observation / body weight / body weight gain) is 762 mg/kg/day; in the data set with rat [10], > 200 mg/kg/day; with rat [11] (setting [24]), 60 mg/kg/day; in the data set with dog [12] it was 133 mg/kg/day; with dog [13], 186 mg/kg/day. The NEL in the data set on mouse [9] (setting [26]) was 28 mg/kg/day; in the data set on rat [10] it was < 150 mg/kg/day; with rat [11] (setting [27]), 18 mg/kg/day; in the data set with dog [12], < 133 mg/kg/day; in the data set with dog [13] it was < 186 mg/kg/day. Also, the no-observed-adverse-effect level (NOAEL) was 146 mg/kg/day in the data set on mouse [9] (setting [26]); ≥ 200 mg/kg/day with rat [10]; 18 mg/kg/day with rat [11] (setting [27]); < 133 mg/kg/day in the data set on dog [12]; < 186 mg/kg/day in the data set on dog [13]. Also, the LEL in the data set with mouse [9] (systemic / pathology microscopic / lung / adenoma) is 146 mg/kg/day; with rat [10] it was 150 mg/kg/day; in the data set on rat [11] (systemic / in life observation / body weight / body weight + systemic / clinical chemistry / calcium / calcium), 60 mg/kg/day; in the data set with dog [12], 133 mg/kg/day; in the data set on dog [13] it was 186 mg/kg/day.

For `CCCCc1ncc(/C=C(\Cc2cccs2)C(=O)O)n1Cc1ccc(C(=O)O)cc1` [Eprosartan], in the data set with rat [14], the LEL amounted to 1000 mg/kg/day, the lowest observed adverse effect level (LOAEL) is 1000 mg/kg/day, the NEL is 100 mg/kg/day and the NOAEL is 100 mg/kg/day.

In the case of `C=CC(=O)OCC` [Ethyl acrylate], in the data set with rat [15], the LEL was 100 mg/kg/day, the LOAEL is 100 mg/kg/day, the NEL was < 100 mg/kg/day and the NOAEL is < 100 mg/kg/day. In addition, in the data set on mouse [16], the LEL was 25 mg/kg/day, the LOAEL is > 25 mg/kg/day, the NEL was 12 mg/kg/day and the NOAEL was ≥ 25 mg/kg/day. Besides, in the data set with mouse [17], the LEL is 100 mg/kg/day, the LOAEL came to 100 mg/kg/day, the NEL is < 100 mg/kg/day and the NOAEL was < 100 mg/kg/day.

`COc1nn(C(=O)[N-]S(=O)(=O)c2ccccc2OC(F)(F)F)c(=O)n1C.[Na+]` [Flucarbazone-sodium]: the LEL in the data set with rabbit (setting [28]) was 500 mg/kg/day; in the data set with rabbit (setting [30]), 300 mg/kg/day; in the data set on rat [18] (systemic / organ weight / spleen / absolute + systemic / organ weight / spleen / relative to body weight), 73.5 mg/kg/day; with rat [19] (setting [32]) it was 1060 mg/kg/day; in the data set on rat [19] (group: parental, systemic / pathology gross / intestine large / dilatation), 453 mg/kg/day; in the data set with dog [20] it was 183 mg/kg/day. In the data set with mouse [21], the LEL is 2070 mg/kg/day. The LOAEL was 500 mg/kg/day with rabbit (setting [28]); 300 mg/kg/day in the data set on rabbit (setting [30]); 287 mg/kg/day in the data set with rat [18] (systemic / organ weight / spleen / absolute + systemic / organ weight / spleen / relative to body weight + systemic / pathology microscopic…); 1060 mg/kg/day with rat [19] (setting [32]); 991 mg/kg/day in the data set with rat [19] (group: parental, systemic / organ weight / uterus / absolute); 183 mg/kg/day in the data set on dog [20]. In the data set on mouse [21], the LOAEL is 2070 mg/kg/day. Besides, the NEL is 300 mg/kg/day in the data set with rabbit (setting [29]); 100 mg/kg/day with rabbit (setting [30]); 17.6 mg/kg/day in the data set with rat [18] (setting [31]); 346 mg/kg/day in the data set on rat [19] (setting [32]); 5.5 mg/kg/day in the data set on rat [19] (group: parental, systemic / pathology gross / intestine large / dilatation + systemic / in life observation / clinical signs / defecation + systemic / in …); 35.9 mg/kg/day in the data set with dog [20]. In addition, the NEL with mouse [21] was found to be 275 mg/kg/day. For the same compound, the NOAEL in the data set with rabbit (setting [29]) amounted to 300 mg/kg/day; in the data set with rabbit (setting [30]), 100 mg/kg/day; in the data set with rat [18] (setting [31]), 73.5 mg/kg/day; in the data set with rat [19] (setting [32]) it was 346 mg/kg/day; in the data set with rat [19] (group: parental, systemic / organ weight / uterus / absolute + systemic / in life observation / body weight / body weight + systemic / in life observation / …), 340 mg/kg/day; with dog [20], 35.9 mg/kg/day. For the same compound, the no observed adverse effect level (NOAEL) in the data set with mouse [21] worked out at 275 mg/kg/day.

As for `C#C[C@]1(OC(C)=O)CC[C@H]2[C@@H]3CCC4=CC(=O)CC[C@@H]4[C@H]3CC[C@@]21C` [Norethindrone acetate], in the data set on rat [22], the LEL is 0.289 mg/kg/day, the LOAEL was > 3.3 mg/kg/day, the NEL was < 0.289 mg/kg/day and the NOAEL is ≥ 3.3 mg/kg/day.
